Measured values: patent US8466188B2, “Use of spiro-oxindole compounds as therapeutic agents” (Xenon Pharmaceuticals Inc., priority 2006, dated 2013)

Each compound was assayed on sodium channel (assay: Guanidine influx assay (14C-guanidine radiotracer flux) in a known cell line that expresses a sodium channel).
Format: cell-based, human or rat
Source text: This example describes an in vitro assay for testing and profiling test agents against human or rat sodium channels stably expressed in cells of either an endogenous or recombinant origin.
The guanidine influx assay is a radiotracer flux assay used to determine ion flux activity of sodium channels in a high-throughput microplate-based format. The assay uses ^14C-guanidine hydrochloride in combination with various known sodium channel modulators, to assay the potency of test agents. Potency is determined by an IC50 calculation. Selectivity is determined by comparing potency of the compound for the channel of interest to its potency against other sodium channels (also called ‘selectivity profiling’).
Each of the test agents is assayed against cells that express the sodium channel of interest. Voltage gated sodium channels are either TTX sensitive or insensitive. This property is useful when evaluating the activities of a channel of interest when it resides in a mixed population with other sodium channels. The following Table 1 lists certain cell lines which are useful in screening for a certain sodium channel activity in the presence or absence of TTX.
It is also possible to employ recombinant cells expressing these sodium channels.
Cells expressing the channel of interest are grown according to the supplier or in the case of a recombinant cell in the presence of selective growth media such as G418 (Gibco/Invitrogen). The cells are disassociated from the culture dishes with an enzymatic solution (1×) Trypsin/EDTA (Gibco/Invitrogen) and analyzed for density and viability using haemocytometer (Neubauer). Disassociated cells are washed and resuspended in their culture media then plated into Scintiplates (Beckman Coulter Inc.) (approximately 100,000 cells/well) and incubated at 37° C./5% CO2 for 20-24 hours. After an extensive wash with Low sodium HEPES-buffered saline solution (LNHBSS) (150 mM Choline Chloride, […] (Sigma), 1 mM Calcium Chloride, 5 mM Potassium Chloride, 1 mM Magnesium Chloride, 10 mM Glucose) agents diluted with LNHBSS are added to each well. (Varying concentrations of test agent may be used). The activation/radiolabel mixture contains aconitine (Sigma), and ^14C-guanidine hydrochloride (ARC).
After loading the cells with test agent and activation/radiolabel mixture, the Scintiplates are incubated at ambient temperature. Following the incubation, the Scintplates are extensively washed with LNHBSS supplemented with guanidine (Sigma). The Scintiplates are dried and then counted using a Wallac MicroBeta TriLux (Perkin-Elmer Life Sciences). The ability of the test agent to block sodium channel activity is determined by comparing the amount of ^14C-guanidine present inside the cells expressing the different sodium channels.
IC50 value of a test agent for a specific sodium channel may be determined using the above general method. […] The IC50 curve is calculated using the 4 Parameter Logistic Model or Sigmoidal Dose-Response Model formula (fit=(A+((B−A)/(1+((C/x)^D)))).
The fold selectivity, factor of selectivity or multiple of selectivity, is calculated by dividing the IC50 value of the test sodium channel by the reference sodium channel, for example, Nav1.5.
The Example numbers provided in Table 2 correspond to the Example numbers herein: […]
Compound `O=C(Nc1cccc(F)c1)c1ccc(CN2C(=O)C3(COc4cc5c(cc43)OCO5)c3ccccc32)cc1` (stereo not shown) [Example 12, N-(3-fluorophenyl)-4-[(2′-oxospiro[furo[2,3-f][1,3]benzodioxole-7,3′-indol]-1′(2′H)-yl)methyl]benzamide] has an IC50 of 100 to 1000 nM.
`O=C1N(CCCO)c2ccccc2C12COc1cc3c(cc12)OCO3` (stereo not shown) [Example 13, 1′-(3-hydroxypropyl)spiro[furo[2,3-f][1,3]benzodioxole-7,3′-indol]-2′(1′H)-one] was tested, and the IC50 was 10 to 100 nM.
`O=C1N(CCCNCC2CC2)c2ccccc2C12COc1cc3c(cc12)OCO3` (stereo not shown) [Example 15, 1′-{3-[(cyclopropylmethyl)amino]propyl}spiro[furo[2,3-f][1,3]benzodioxole-7,3′-indol]-2′(1′H)-one] showed an IC50 of over 1000 nM.
For `NCCCN1C(=O)C2(COc3cc4c(cc32)OCO4)c2ccccc21` (stereo not shown) [Example 16, 1′-(3-aminopropyl)spiro[furo[2,3-f][1,3]benzodioxole-7,3′-indol]-2′(1′H)-one], the IC50 was over 1000 nM.
Compound `O=C(NCCCN1C(=O)C2(COc3cc4c(cc32)OCO4)c2ccccc21)c1sccc1Cl` (stereo not shown) [Example 17, 3-chloro-N-[3-(2′-oxospiro[furo[2,3-f][1,3]benzodioxole-7,3′-indol]-1′(2′H)-yl)propyl]thiophene-2-carboxamide] has an IC50 of 10 to 100 nM.
For `NCCN1C(=O)C2(COc3cc4c(cc32)OCO4)c2ccccc21` (stereo not shown) [Example 18, 1′-(2-aminoethyl)spiro[furo[2,3-f][1,3]benzodioxole-7,3′-indol]-2′(1′H)-one], the IC50 was over 1000 nM.
For `O=C(NCCN1C(=O)C2(COc3cc4c(cc32)OCO4)c2ccccc21)Nc1ccc(F)cc1` (stereo not shown) [Example 19, 1-(4-fluorophenyl)-3-[2-(2′-oxospiro[furo[2,3-f][1,3]benzodioxole-7,3′-indol]-1′(2′H)-yl)ethyl]urea], the IC50 was over 1000 nM.
For `CCCCCN1C(=O)C2(CC(=O)c3cc4c(cc32)OCO4)c2ccccc21` (stereo not shown) [Example 21, 1′-pentylspiro[indeno[5,6-d][1,3]dioxole-5,3′-indole]-2′,7(1′H,6H)-dione], the IC50 was 1 to 10 nM.
Work on `CCCCCN1C(=O)C2(CCC(=O)c3cc4c(cc32)OCO4)c2ccccc21` (stereo not shown) [Example 22, 1-pentyl-6′H-spiro[indole-3,5′-naphtho[2,3-d][1,3]dioxole]-2,8′(1′H,7′H)-dione] yielded an IC50 of 1 to 10 nM.
For `CCCCCN1C(=O)C2(CCc3cc4c(cc32)OCO4)c2ccccc21` (stereo not shown) [Example 23, 1′-pentyl-6,7-dihydrospiro[indeno[5,6-d][1,3]dioxole-5,3′-indol]-2′(1′H)-one], the IC50 was 100 to 1000 nM.
`CCCCCN1C(=O)C2(CCCc3cc4c(cc32)OCO4)c2ccccc21` (stereo not shown) [Example 24, 1-pentyl-7′,8′-dihydro-6′H-spiro[indole-3,5′-naphtho[2,3-d][1,3]dioxol]-2(1H)-one] gave an IC50 of 1 to 10 nM.
`CCCCCN1C(=O)C2(CC(O)c3cc4c(cc32)OCO4)c2ccccc21` (stereo not shown) [Example 26, 7-hydroxy-1′-pentyl-6,7-dihydrospiro[indeno[5,6-d][1,3]dioxole-5,3′-indol]-2′(1′H)-one] was tested, and the IC50 was over 1000 nM.
In the case of `CCCCCN1C(=O)C2(CC(OC)c3cc4c(cc32)OCO4)c2ccccc21` (stereo not shown) [Example 27, 7-methoxy-1′-pentyl-6,7-dihydrospiro[indeno[5,6-d][1,3]dioxole-5,3′-indol]-2′(1′H)-one], the IC50 is reported as over 1000 nM.
Work on `CCCCCN1C(=O)C2(CNC(=O)c3cc4c(cc32)OCO4)c2ccccc21` (stereo not shown) [Example 28, 1′-pentyl-6,7-dihydro-5H-spiro[1,3-dioxolo[4,5-d]isoquinoline-8,3′-indole]-2′,5(1′H)-dione] yielded an IC50 of over 1000 nM.
`CCCCCN1C(=O)C2(COc3cc4c(cc32)OCO4)c2c(C(=O)Nc3ccccn3)cccc21` (stereo not shown) [Example 29, 2′-oxo-1′-pentyl-N-pyridin-2-yl-1′,2′-dihydrospiro[furo[2,3-f][1,3]benzodioxole-7,3′-indole]-4′-carboxamide] showed an IC50 of over 1000 nM.
Compound `CCCCCCN1C(=O)C2(CC(=O)Oc3cc4c(cc32)OCO4)c2ccccc21` (stereo not shown) [Example 31, 1′-hexylspiro[1,3-dioxolo[4,5-g]chromene-8,3′-indole]-2′,6(1′H,7H)-dione] has an IC50 of over 1000 nM.
